# Reference: article PMC10780413, “Flavonoid Metabolites in Serum and Urine after the Ingestion of Selected Tropical Fruits” (Nutrients, 2024)
# Like-named read-outs stand apart in the source and are kept apart here.
# Legend:
# xanthine oxidase = system: xanthine oxidase; design: method as in PMID 11118813; settings: cited from earlier work
# [1] = plasma; cited from earlier work
# [2] = format: in vivo, human; settings: after guava, pineapple, pomelo
# Procedure: Participants maintained a low-flavonoid diet (e.g., diet without vegetables, fruits, or chocolate) for two days and fasted for 8 h before the study to avoid any contribution from other foods containing flavonoids. Servings of fresh fruits of 200 g were given to the participants followed by 200 mL water. Beverages containing alcohol and caffeine were prohibited during the test period. Venous blood samples were collected before and 2, 4, 6, and 8 h after fruit ingestion. Serum was immediately prepared using centrifugation 233× g at 4 °C for 15 min, 200 mM ascorbic acid was added, and the samples were then stored at −20 °C until the analysis (within two weeks). Urine samples were collected at intervals of 0–4, 4–6, 6–8, 8–12, and 12–24 h in plastic bottles containing 70 mg of ascorbic acid per 100 mL of urine. The volume of urine sample was measured and then centrifuged at 233× g to remove the precipitate. […]
# Flavonoid analysis was measured by a modified method of Biessaga [15] and Mullen et al. [16]. […]
# [3] = Bioavailability estimated from total urinary excretion and flavonoid content in fruits; format: in vivo; settings: human, 200 g, 200 g edible part, fruit content from ref 10, read-out: Estimated bioavailability (total urinary amount as % of content in fruit)
# Procedure: Hollman et al. reported the bioavailability of quercetin from apples and pure quercetin-3-rutinose was only 30% compared to onions. Here, we assumed the flavonoids recovering in urine had passed the blood compartment. […] In the two-hundred grams of edible part, guava and pineapple contained about 6900 μg and 850 μg of quercetin, respectively. The total amount of urinary quercetin accounted for 13% and 80% of the quercetin content in the respective fruits. […] It should be noted that, the bioavailability of flavonoids may be underestimated because the biliary excretion of flavonoids was not taken into account. Moreover, the urinary methyl-conjugated favonoids were not quantified in this study.
# [4] = design: method as in PMID 25212140; settings: after ingestion of rooibos tea; cited from earlier work
# [5] = cited from earlier work
# [6] = design: method as in PMID 11361045; settings: cited from earlier work
# [7] = Serum concentration of flavonoid metabolites after ingestion of 200 g fresh fruit (LC-MS/MS after enzyme hydrolysis); format: in vivo, human; settings: despite presence in the selected fruits
# From the text: Three groups of six healthy subjects (male and female) between 20 and 30 years of age, with a body mass index between 18 and 25, were recruited for this study. Each group of participant received one kind of fruit. They were not alcohol drinkers, smokers, drug users, nor pregnant. They had not taken any medications for at least one month prior to the experiment. All participants underwent health checks for their hematological and biochemical profiles. There was no clinical presentation of gastrointestinal diseases (peptic ulcer), kidney diseases, liver diseases or jaundice, heart diseases, asthma, or diabetes mellitus. Levels of blood glucose before and 4 h after fruit ingestion were monitored in all subjects. […]
# Participants maintained a low-flavonoid diet (e.g., diet without vegetables, fruits, or chocolate) for two days and fasted for 8 h before the study to avoid any contribution from other foods containing flavonoids. […] The volume of urine sample was measured and then centrifuged at 233× g to remove the precipitate. […]
# The conjugated metabolites of flavonoids, glucuronic acid, and sulfate conjugates were determined in the serum and urine after hydrolyzing with β-glucuronidase (EC 3.2.1.31, bovine liver type B-I, Sigma, St Louis, MO, USA) and aryl sulfatase (EC 3.1.6.1, Merk, Darmstadt, Germany), respectively, at 37 °C for 16 h. […]
# [8] = design: method as in PMID 14709621; settings: in vitro study; cited from earlier work
# [9] = system: LPS-induced pulmonary injury; design: method as in PMID 37335159; settings: in vitro and in vivo models; cited from earlier work
smiles,measurement,setting,value
O=C(O)[C@H]1O[C@@H](Oc2cc(-c3oc4cc(O)cc(O)c4c(=O)c3O)ccc2O)[C@H](O)[C@@H](O)[C@@H]1O [3′-quercetin glucuronide],Inhibitory effect on xanthine oxidase,xanthine oxidase,potent inhibitory effect
O=C(O)[C@H]1O[C@@H](Oc2ccc(-c3oc4cc(O)cc(O)c4c(=O)c3O)cc2O)[C@H](O)[C@@H](O)[C@@H]1O [4′-quercetin glucuronide],Inhibitory effect on xanthine oxidase,xanthine oxidase,potent inhibitory effect
"O=c1c(O)c(-c2ccc(O)cc2)oc2cc(O)cc(O)c12 [Kaempferol, kaempferol]",Share that is glucuronide in the 3′-position,[1],20–40%
same,Conjugated forms recovered in urine,[2],found in both conjugated metabolites
same,bioavailability,"[3]; urine, oral, from pineapple",10%
same,bioavailability,"[3]; urine, oral, from pomelo",1%
"O=c1cc(-c2ccc(O)c(O)c2)oc2cc(O)cc(O)c12 [Luteolin, luteolin]",bioavailability,"[3]; urine, oral, from guava",5%
same,bioavailability,"[3]; urine, oral, from pomelo",5%
same,Tmax,[4],1.5 to 3 h
"O=c1c(O)c(-c2cc(O)c(O)c(O)c2)oc2cc(O)cc(O)c12 [Myricetin, myricetin]",Share that is glucuronide in the 3′-position,[1],20–40%
same,Conjugated forms recovered in urine,[2],only detected in sulfate form
same,bioavailability,"[3]; in vivo, from guava",5%
same,bioavailability,"[3]; in vivo, from pineapple",10%
"O=c1c(O)c(-c2ccc(O)c(O)c2)oc2cc(O)cc(O)c12 [Quercetin, quercetin]",Bioavailability of quercetin compared to onions,[5]; from apples,30%
same,Share that is glucuronide in the 3′-position,[1],20–40%
same,Conjugated forms recovered in urine,[2],found in both conjugated metabolites
same,bioavailability,"[3]; urine, oral, from guava",13%
same,bioavailability,"[3]; urine, oral, from pineapple",80%
same,Tmax of quercetin,[6]; after ingesting buckwheat tea,4.3 h
same,Tmax of quercetin,[6]; after ingesting quercetin-3-rutioside,6.9 h
same,Tmax of quercetin,[6]; after single ingestion of onion,0.7 h
same,Tmax of quercetin,[6]; after single ingestion of quercetin-4’-glucoside,0.7 h
O=c1cc(-c2ccc(O)cc2)oc2cc(O)cc(O)c12 [apigenin],Detection in serum or urine after fruit ingestion,[7],did not detect
same,"Phase I metabolism, major metabolite",[8],forms luteolin as a major metabolite
COc1ccc([C@@H]2CC(=O)c3c(O)cc(O)cc3O2)cc1O [hesperetin],Detection in serum or urine after fruit ingestion,[7],did not detect
O=C(O)[C@H]1O[C@@H](Oc2c(-c3ccc(O)c(O)c3)oc3cc(O)cc(O)c3c2=O)[C@H](O)[C@@H](O)[C@@H]1O [quercetin-3-glucuronide],Activity in LPS-induced pulmonary injury,[9],exerted antioxidant and anti-inflammatory activity
same,Inhibitory effect on xanthine oxidase,xanthine oxidase,not active
"C[C@@H]1O[C@@H](OC[C@H]2O[C@@H](Oc3c(-c4ccc(O)c(O)c4)oc4cc(O)cc(O)c4c3=O)[C@H](O)[C@@H](O)[C@@H]2O)[C@H](O)[C@H](O)[C@H]1O [quercetin-3-rutinose, reference compound]",Bioavailability of quercetin compared to onions,[5]; in vivo,30%
